From patent US4738977A, “2-pyridylacetic acid derivatives, pharmaceutical composition containing the same and their use in treating ulcers” (Suntory Limited, priority 1985, dated 1988)

What was measured:
gastric acid secretion = test: Action on Gastric Acid Secretion (Shay Rat, pylorus ligation); assay type: in vivo, Sprague-Dawley strain male rats; conditions: intraduodenal immediately after pylorus ligation, 4 h gastric juice
Description: (§1) For the pharmocological examination of the compounds of the present invention, the following tests were carried out to confirm the effect of inhibiting gastric acid secretion and the protective effect of gastric mucosa. For the toxicity, the test compound was orally administered to six mice of one group to determine the toxicity (LD50) thereof.
1. Action on Gastric Acid Secretion (Shay Rat)
Sprague-Dawley strain male rats weighing 200-240 g were used after being starved for 24 hours (water was given ad libitum). Under ether anesthesia, the abdomen was cut and, after ligation of the pylorus part, then closed, and the rat was starved of both food and water. Four hours later the stomach was removed under ether anesthesia and the gastric juice was collected. The gastric juice collected was centrifuged at 3000 rpm for 10 minutes, the volume of the supernatant was measured, and the acidity was determined by titrating 1 ml of the gastric juice with 0.1 N sodium hydroxide solution to pH 7.0. Further, from the amount of gastric juice and the acidity, the acid output (μEg/4h) was calculated; the percentage of inhibition was determined from the following formula, and the percentage of inhibition versus dose (mg/kg) was then plotted on a semi-logarithmic graph to determine the ED50 value. Each test drug was suspended in physiological saline with a few drops of Tween 80 (available from Nakarai Chemicals Ltd.,) and administered into the duodenum at a proportion of 0.2 ml/100 g-body weight immediately after pylorus ligation. [formula]

[1] = Action on Hydrochloric Acid Plus Ethanol Induced Ulcer; assay type: in vivo, Sprague-Dawley strain male rats; conditions: rat, oral 30 minutes before HCl-ethanol
Description: 2. Action on Hydrochloric Acid Plus Ethanol Induced Ulcer
Sprague-Dawley strain male rats weighing 200-240 g were used after starving for 24 hours. To each rat, a 60% ethanolic solution containing 150 mM of hydrochloric acid was administered orally at a volume of 0.5 ml/100 g-body weight, and the stomach was removed under ether anesthesia 1 hour later. Into the stomach, 10 ml of a 2% formalin solution was injected, and further the stomach was then immersed in a 2% formalin solution for 15 minutes to fix the inner and outer wall of the stomach. The stomach was cut open along the greater curvature, and the length of the damage generated at the glandular portion of the stomach was measured, and the sum of the lengths of the damages of gastric mucosa per one rat was defined as the lesion index (mm), which was compared with a control group to calculate the percentage of inhibition according to the formula shown below, and then the percentage of inhibition versus dose (mg/kg) was plotted on a semi-logarithmic graph to determine the ED50 value. Each test drug was suspended in physiological saline a few drops of Tween 80 and administered orally 30 minutes before administration of the hydrochloric acid ethanolic solution. [formula]

Toxicity (LD50) in mouse = conditions: in vivo, oral, six mice of one group
Description: as §1

Anti Stress Ulcer = assay type: in vivo, Sprague-Dawley-strain male rats; conditions: rat, oral 30 minutes before water immersion stress at 23° C., 5 hours; read-out: Action on anti-stress ulcer (ED50)
Description: Sprague-Dawley-strain male rats weighing about 240-260 g were starved for 24 hours, and, 30 minutes after oral administration of the test drug, the rat was placed in a stress cage and stress was loaded by immersing the rat into a water tank maintained at 23° C. to the xiphisternum of the chest. Five hours later, the stomach was removed under ether anesthesia, the same treatment as in the case of aspirin ulcer was applied, and the sum of the lengths (mm) of the mucosa damage generated at the glandular portion of the stomach was defined as the lesion index. The ED50 value was calculated as described before.

[2] = Anti-Indomethacin Ulcer Action; assay type: in vivo, Sprague-Dawley-strain male rats; conditions: rat, 30 minutes before indomethacin 30 mg/kg s.c., 5 hours
Description: 4. Anti-Indomethacin Ulcer Action
Sprague-Dawley-strain male rats weighing about 200-220 g were starved for 24 hours, and 30 mg/kg of indomethacin (suspended in 1% CMC) was administered subcutaneously. After five hours, the stomach was removed under ether anesthesia, and subsequently the same treatment as in the case of an aspirin ulcer was carried out and the sum of the length (mm) of the damage produced at the glandular portion of the stomach per one rat was defined as lesion index. The test drug was administered 30 minutes before administration of indomethacin. The ED50 value was calculated as described before.

[3] = Anti-Aspirin Ulcer Action; assay type: in vivo, Sprague-Dawley-strain male rats; conditions: rat, into the duodenum, aspirin 150 mg/kg oral, 5 hours
Description: 3. Anti-Aspirin Ulcer Action
Sprague-Dawley-strain male rats weighing about 220 g were starved for 24 hours, and with pylorus being ligated under ether anesthesia, the test drug was administered into the duodenum. After recovery from ether anesthesia, 150 mg/kg of aspirin (suspended in 1% CMC) was orally administered. Five hours later, the stomach was removed under ether anesthesia, 10 ml of 2% formalin solution was injected into the stomach, and the stomach was then immersed in a 2% formalin solution for about 15 minutes. The stomach was then cut open along the greater curvature and the length of the damage generated at the glandular portion of the stomach was measured under dissecting microscope (×10) and the sum of the lengths per one rat (mm) was defined as the lesion index. The ED50 value was calculated as described before.

[4] = Anti-Duodenal Ulcer Action; assay type: in vivo, Sprague-Dawley-strain male rats; conditions: rat, indomethacin plus histamine 2HCl
Description: 6. Anti-Duodenal Ulcer Action
Sprague-Dawley-strain male rats weighing 200-220 g were starved for 24 hours, and indomethacin (suspended in saline with Tween 80) and histamine 2HCl (dissolved in 10% gelatin solution) were administered following the time schedule shown below. Then, under ether anesthesis, stomach and the duodenal part were removed and 2% formalin solution was injected thereinto. Further, they were immersed in 2% formalin solution for about 15 minutes, and then cut open along the greater curvature to the duodenal part, and the number and area (length in the case of linear ulcer) of the mucosa damages generated at the Corpus, Antrum and Duodenum respectively were measured under stereoscopic microscope (×10), and the sum of the area (mm^2) per one rat was defined as lesion index. The ED50 value was calculated as described before. [drawing 32]

Toxicity (LD50) in rat = conditions: in vivo, oral

Structure (SMILES) | ED50 (gastric acid secretion) [mg/kg] | ED50 [1] [mg/kg] | also measured
CCOC(=O)C(C(=S)NC)c1ccccn1 (stereo not drawn) [Example 1, ethyl 2-methylthiocarbamoyl-2-(2-pyridyl)acetate] | 2.4 | – | –
CCNC(=S)C(C(=O)OCC)c1ccccn1 (stereo not drawn) [Example 2, Ethyl 2-ethylthiocarbamoyl-2-(2-pyridyl)acetate] | 4 | 6.8 | –
C=CCNC(=S)C(C(=O)OCC)c1ccccn1 (stereo not drawn) [Example 3, Ethyl 2-allylthiocarbamoyl-2-(2-pyridyl)acetate] | 3.8 | – | –
CCOC(=O)C(C(=S)NC1CCCCC1)c1ccccn1 (stereo not drawn) [Example 4, Ethyl 2-cyclohexylthiocarbamoyl-2-(2-pyridyl)acetate] | 15.5 | – | –
CCOC(=O)C(C(=S)Nc1ccccc1)c1ccccn1 (stereo not drawn) [Example 6, Ethyl 2-phenylthiocarbamoyl-2-(2-pyridyl)acetate] | 9.3 | 3.4 | LD50 (Toxicity (LD50) in mouse): > 1300 mg/kg
CNC(=S)C(C(=O)OCc1ccccc1)c1ccccn1 (stereo not drawn) [Example 8, Benzyl 2-methylthiocarbamoyl-2-(2-pyridyl)acetate] | 12.3 | – | –
CNC(=S)C(C(=O)OCC=C(C)C)c1ccccn1 (stereo not drawn) [Example 9, Prenyl 2-methylthiocarbamoyl-2-(2-pyridyl)acetate] | 3.5 | 1.1 | –
C=CCNC(=S)C(C(=O)OCC=C(C)C)c1ccccn1 (stereo not drawn) [Example 10, Prenyl 2-allylthiocarbamoyl-2-(2-pyridyl)acetate] | 4.4 | 7.7 | –
CNC(=S)C(C(=O)OC/C=C(\C)CCC=C(C)C)c1ccccn1 (stereo not drawn) [Example 12, Geranyl 2-methylthiocarbamoyl-2-(2-pyridyl)acetate] | 5 | 1.4 | LD50 (Toxicity (LD50) in mouse): > 1300 mg/kg; ED50 (Anti Stress Ulcer): 5.3 mg/kg; ED50 [2]: 0.7 mg/kg; ED50 [3]: 0.8 mg/kg; ED50 [4]: 0.6 mg/kg
CC(C)=CCC/C(C)=C/COC(=O)C(C(=S)Nc1ccccc1)c1ccccn1 (stereo not drawn) [Example 14, Geranyl 2-phenylthiocarbamoyl-2-(2-pyridyl)acetate] | 36 | 3.7 | –
CNC(=S)C(C(=O)OC/C=C(\C)CC/C=C(\C)CCC=C(C)C)c1ccccn1 (stereo not drawn) [Example 15, Farnesyl 2-methylthiocarbamoyl-2-(2-pyridyl)acetate] | 5.6 | 0.3 | –
CC(C)=CCC/C(C)=C/COC(=O)C(C(N)=S)c1ccccn1 (stereo not drawn) [Example 17, geranyl 2-thiocarbamoyl-2-(2-pyridyl)acetate] | 5.3 | 2.8 | LD50 (Toxicity (LD50) in mouse): > 2000 mg/kg; ED50 (Anti Stress Ulcer): 4.2 mg/kg; ED50 [3]: 1 mg/kg; LD50 (Toxicity (LD50) in rat): > 2860 mg/kg; ED50 [4]: 1 mg/kg
CC(C)=CCOC(=O)C(C(N)=S)c1ccccn1 (stereo not drawn) [Example 18, Prenyl 2-thiocarbamoyl-2-(2-pyridyl)acetate] | 7.8 | 4.5 | –
CCCNC(=S)C(C(=O)OCC)c1ccccn1 (stereo not drawn) [Example 19, Ethyl 2-propylthiocarbamoyl-2-(2-pyridyl)acetate] | 3.8 | – | –
CCOC(=O)C(C(=S)NCCCO)c1ccccn1 (stereo not drawn) [Example 20, Ethyl 2-(3-hydroxypropyl)thiocarbamoyl-2(2-pyridyl)acetate] | – | 2.3 | –
CCOC(=O)C(C(=S)NCc1ccccn1)c1ccccn1 (stereo not drawn) [Example 24, Ethyl 2-(2-pyridyl)methylthiocarbamoyl-2(2-pyridyl)acetate] | 6.4 | – | –
